# Data taken from article PMC6540285, “Evaluation of Protein Kinase Inhibitors with PLK4 Cross-Over Potential in a Pre-Clinical Model of Cancer” (International Journal of Molecular Sciences, 2019).
# Tests used:
# [1] = molecular target: T1, MAP2K2 (MEK2) (Homo sapiens, UniProt P36507); test: SelectScreen kinase profiling, ZLYTE; assay type: biochemical
# [2] = molecular target: PRKCG (PKC gamma) (Homo sapiens, UniProt P05129); test: SelectScreen kinase profiling, ZLYTE; assay type: biochemical
# [3] = molecular target: MAPK15 (ERK7) (Homo sapiens, UniProt Q8TD08); test: SelectScreen kinase profiling, LanthaScreen binding
# [4] = molecular target: GRK7 (Homo sapiens, UniProt Q8WTQ7); test: SelectScreen kinase profiling, ZLYTE; assay type: biochemical; conditions: GRK7, 10 µM
# [5] = molecular target: RPS6KA4 (MSK2) (Homo sapiens, UniProt O75676); test: SelectScreen kinase profiling, ZLYTE; assay type: biochemical
# [6] = molecular target: PIK3C3 (hVPS34) (Homo sapiens, UniProt Q8NEB9); test: SelectScreen kinase profiling, Adapta; assay type: biochemical
# [7] = molecular target: MERTK (cMER) A708S (Homo sapiens, UniProt Q12866, A708S); test: SelectScreen kinase profiling, LanthaScreen binding
# [8] = molecular target: SIK3 (Homo sapiens, UniProt Q9Y2K2); test: as above; conditions: SIK3, 10 µM
# [9] = molecular target: EPHA6 (Homo sapiens, UniProt Q9UF33); test: as above; conditions: EPHA6, 10 µM
# [10] = molecular target: ALK F1174L (Homo sapiens, UniProt Q9UM73, F1174L); test: as above
# [11] = molecular target: RIPK3 (Homo sapiens, UniProt Q9Y572); test: as above; conditions: RIPK3, 10 µM
# [12] = molecular target: CDK9/cyclin T1 (Homo sapiens, UniProt P50750); test: SelectScreen kinase profiling, Adapta; assay type: biochemical; conditions: CDK9/cyclin T1, 10 µM
# [13] = molecular target: ADCK3 (Homo sapiens, UniProt Q8NI60); test: SelectScreen kinase profiling, LanthaScreen binding; conditions: ADCK3, 10 µM
# From the text: Kinase Technology % Inhibition Avg Kinase Technology % Inhibition Avg
# STK23 (MSSK1) ZLYTE 59 TGFBR1 (ALK5) LanthaScreen 85
# STK24 (MST3) ZLYTE 85 TGFBR2 LanthaScreen 77
# STK25 (YSK1) ZLYTE 45 TLK1 LanthaScreen 4
# STK3 (MST2) ZLYTE 77 TLK2 LanthaScreen 33
# STK32B (YANK2) LanthaScreen 61 TNIK LanthaScreen 15
# STK32C (YANK3) LanthaScreen 62 TNK1 ZLYTE 94
# STK33 LanthaScreen 81 TNK2 (ACK) LanthaScreen 71
# STK38 (NDR) LanthaScreen 85 TTK LanthaScreen 54
# STK38L (NDR2) LanthaScreen 59 TXK ZLYTE 94
# STK39 (STLK3) LanthaScreen 38 TYK2 ZLYTE 99
# STK4 (MST1) ZLYTE 93 TYRO3 (RSE) ZLYTE 92
# SYK ZLYTE 98 ULK1 LanthaScreen 80
# TAOK1 LanthaScreen 82 ULK2 LanthaScreen 56
# TAOK2 (TAO1) ZLYTE 87 ULK3 LanthaScreen 5
# TAOK3 (JIK) LanthaScreen 25 VRK2 LanthaScreen 32
# TBK1 ZLYTE 99 WEE1 LanthaScreen 75
# TEC LanthaScreen -9 WNK1 LanthaScreen 2
# TEK (Tie2) ZLYTE 99 WNK2 LanthaScreen 1
# TEK (TIE2) R849W LanthaScreen -5 WNK3 LanthaScreen 7
# TEK (TIE2) Y897S ZLYTE 80 ZAK LanthaScreen 77
# TESK1 LanthaScreen 37 ZAP70 ZLYTE 24
# cleavage (Thermo Fisher Scientific, USA)
# [14] = molecular target: LRRK2 R1441C (Homo sapiens, UniProt Q5S007, R1441C); test: SelectScreen kinase profiling, Adapta; assay type: biochemical
# [15] = molecular target: KIT Y823D (Homo sapiens, UniProt P10721, Y823D); test: SelectScreen kinase profiling, LanthaScreen binding
# [16] = molecular target: PRKCI (PKC iota) (Homo sapiens, UniProt P41743); test: SelectScreen kinase profiling, ZLYTE; assay type: biochemical
# [17] = molecular target: MATK (HYL) (Homo sapiens, UniProt P42679); test: SelectScreen kinase profiling, ZLYTE; assay type: biochemical
# [18] = molecular target: PIK3CG (p110 gamma) (Homo sapiens, UniProt P48736); test: SelectScreen kinase profiling, Adapta; assay type: biochemical
# [19] = molecular target: CDKL5 (Homo sapiens, UniProt O76039); test: SelectScreen kinase profiling, ZLYTE; assay type: biochemical; conditions: CDKL5, 10 µM
# [20] = molecular target: AURKC (Aurora C) (Homo sapiens, UniProt Q9UQB9); test: SelectScreen kinase profiling, ZLYTE; assay type: biochemical
# [21] = molecular target: PIP5K1C (Homo sapiens, UniProt O60331); test: SelectScreen kinase profiling, Adapta; assay type: biochemical
# [22] = molecular target: ACVR1 (ALK2) (Homo sapiens, UniProt Q04771); test: SelectScreen kinase profiling, LanthaScreen binding
# [23] = molecular target: CSNK1D (CK1 delta) (Homo sapiens, UniProt P48730); test: SelectScreen kinase profiling, ZLYTE; assay type: biochemical
# [24] = molecular target: ALK L1196M (Homo sapiens, UniProt Q9UM73, L1196M); test: SelectScreen kinase profiling, LanthaScreen binding
# [25] = molecular target: T1, MAP2K2 (MEK2); test: as above
# [26] = molecular target: MYO3B (MYO3 beta) (Homo sapiens, UniProt Q8WXR4); test: as above
# [27] = system: MON cells; test: cells; conditions: read-out: MTT: IC50 of the proliferation assay
# [28] = molecular target: ACVRL1 (ALK1) (Homo sapiens, UniProt P37023); test: SelectScreen kinase profiling, LanthaScreen binding
# [29] = molecular target: CDC7/DBF4 (Homo sapiens, UniProt O00311); test: as above; conditions: CDC7/DBF4, 10 µM
# [30] = molecular target: STK17B (DRAK2) (Homo sapiens, UniProt O94768); test: as above
# [31] = molecular target: EPHA4 (Homo sapiens, UniProt P54764); test: SelectScreen kinase profiling, ZLYTE; assay type: biochemical; conditions: EPHA4, 10 µM
# T1 sequence (P36507 whole entry): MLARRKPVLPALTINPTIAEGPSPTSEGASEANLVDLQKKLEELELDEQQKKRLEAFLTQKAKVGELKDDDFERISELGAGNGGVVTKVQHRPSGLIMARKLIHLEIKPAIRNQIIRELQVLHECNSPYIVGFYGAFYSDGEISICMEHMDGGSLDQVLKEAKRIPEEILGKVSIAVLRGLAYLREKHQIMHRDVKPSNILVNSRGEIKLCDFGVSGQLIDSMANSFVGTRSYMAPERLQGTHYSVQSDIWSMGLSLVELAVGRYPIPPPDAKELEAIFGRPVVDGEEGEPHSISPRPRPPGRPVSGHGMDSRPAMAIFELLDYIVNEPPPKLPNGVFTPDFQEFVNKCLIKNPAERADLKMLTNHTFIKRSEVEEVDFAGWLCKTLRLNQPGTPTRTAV
# Sequence of PIK3CG (p110 gamma) (P48736 whole entry): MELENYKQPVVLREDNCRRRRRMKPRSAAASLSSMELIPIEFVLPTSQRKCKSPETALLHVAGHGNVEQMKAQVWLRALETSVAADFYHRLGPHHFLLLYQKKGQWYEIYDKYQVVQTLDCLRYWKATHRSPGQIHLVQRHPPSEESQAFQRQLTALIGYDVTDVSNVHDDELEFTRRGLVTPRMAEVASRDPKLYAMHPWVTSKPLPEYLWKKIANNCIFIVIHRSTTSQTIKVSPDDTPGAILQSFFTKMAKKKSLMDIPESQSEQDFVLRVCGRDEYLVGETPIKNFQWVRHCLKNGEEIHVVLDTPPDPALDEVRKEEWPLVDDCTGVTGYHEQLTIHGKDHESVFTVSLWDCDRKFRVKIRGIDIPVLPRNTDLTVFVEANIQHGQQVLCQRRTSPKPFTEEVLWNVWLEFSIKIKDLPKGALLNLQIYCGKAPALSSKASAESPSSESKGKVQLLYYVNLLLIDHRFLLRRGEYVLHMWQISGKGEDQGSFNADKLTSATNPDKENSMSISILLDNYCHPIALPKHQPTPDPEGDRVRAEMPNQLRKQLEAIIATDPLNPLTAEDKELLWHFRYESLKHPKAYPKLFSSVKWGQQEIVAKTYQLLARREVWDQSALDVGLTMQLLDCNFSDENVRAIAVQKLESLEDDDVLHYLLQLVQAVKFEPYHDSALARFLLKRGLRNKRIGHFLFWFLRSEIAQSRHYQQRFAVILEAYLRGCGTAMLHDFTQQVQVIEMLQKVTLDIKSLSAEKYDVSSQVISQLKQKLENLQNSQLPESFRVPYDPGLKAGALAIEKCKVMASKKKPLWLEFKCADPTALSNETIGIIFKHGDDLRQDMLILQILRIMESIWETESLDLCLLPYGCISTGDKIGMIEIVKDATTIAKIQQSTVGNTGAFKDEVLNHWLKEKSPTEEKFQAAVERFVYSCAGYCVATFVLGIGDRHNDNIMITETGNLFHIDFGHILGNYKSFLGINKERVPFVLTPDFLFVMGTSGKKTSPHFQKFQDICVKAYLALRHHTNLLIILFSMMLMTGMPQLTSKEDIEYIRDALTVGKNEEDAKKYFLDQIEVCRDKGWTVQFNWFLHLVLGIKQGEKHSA
# Sequence of ACVRL1 (ALK1) (P37023 22-503): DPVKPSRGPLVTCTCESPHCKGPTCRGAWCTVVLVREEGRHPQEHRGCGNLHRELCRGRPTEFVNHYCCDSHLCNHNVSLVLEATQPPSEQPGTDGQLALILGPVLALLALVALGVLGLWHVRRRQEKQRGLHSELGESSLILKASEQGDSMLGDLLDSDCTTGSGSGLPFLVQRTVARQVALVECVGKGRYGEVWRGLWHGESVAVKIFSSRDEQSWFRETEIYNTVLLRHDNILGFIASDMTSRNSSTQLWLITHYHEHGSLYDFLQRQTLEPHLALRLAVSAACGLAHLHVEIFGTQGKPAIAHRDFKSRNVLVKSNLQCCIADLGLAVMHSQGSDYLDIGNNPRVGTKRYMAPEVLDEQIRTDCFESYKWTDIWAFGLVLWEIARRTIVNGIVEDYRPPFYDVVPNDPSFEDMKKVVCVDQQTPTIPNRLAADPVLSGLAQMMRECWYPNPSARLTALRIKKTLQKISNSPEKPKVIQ
# Sequence of AURKC (Aurora C) (Q9UQB9 whole entry): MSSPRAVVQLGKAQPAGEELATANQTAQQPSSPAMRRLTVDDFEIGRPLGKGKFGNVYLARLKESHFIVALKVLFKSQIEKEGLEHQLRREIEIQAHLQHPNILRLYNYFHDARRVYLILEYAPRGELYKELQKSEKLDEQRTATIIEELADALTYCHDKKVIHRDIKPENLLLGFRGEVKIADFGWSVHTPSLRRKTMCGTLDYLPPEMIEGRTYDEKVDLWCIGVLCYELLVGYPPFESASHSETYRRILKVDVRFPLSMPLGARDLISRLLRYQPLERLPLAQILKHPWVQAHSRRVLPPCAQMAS
# Sequence of KIT Y823D (P10721 26-976 Y823D): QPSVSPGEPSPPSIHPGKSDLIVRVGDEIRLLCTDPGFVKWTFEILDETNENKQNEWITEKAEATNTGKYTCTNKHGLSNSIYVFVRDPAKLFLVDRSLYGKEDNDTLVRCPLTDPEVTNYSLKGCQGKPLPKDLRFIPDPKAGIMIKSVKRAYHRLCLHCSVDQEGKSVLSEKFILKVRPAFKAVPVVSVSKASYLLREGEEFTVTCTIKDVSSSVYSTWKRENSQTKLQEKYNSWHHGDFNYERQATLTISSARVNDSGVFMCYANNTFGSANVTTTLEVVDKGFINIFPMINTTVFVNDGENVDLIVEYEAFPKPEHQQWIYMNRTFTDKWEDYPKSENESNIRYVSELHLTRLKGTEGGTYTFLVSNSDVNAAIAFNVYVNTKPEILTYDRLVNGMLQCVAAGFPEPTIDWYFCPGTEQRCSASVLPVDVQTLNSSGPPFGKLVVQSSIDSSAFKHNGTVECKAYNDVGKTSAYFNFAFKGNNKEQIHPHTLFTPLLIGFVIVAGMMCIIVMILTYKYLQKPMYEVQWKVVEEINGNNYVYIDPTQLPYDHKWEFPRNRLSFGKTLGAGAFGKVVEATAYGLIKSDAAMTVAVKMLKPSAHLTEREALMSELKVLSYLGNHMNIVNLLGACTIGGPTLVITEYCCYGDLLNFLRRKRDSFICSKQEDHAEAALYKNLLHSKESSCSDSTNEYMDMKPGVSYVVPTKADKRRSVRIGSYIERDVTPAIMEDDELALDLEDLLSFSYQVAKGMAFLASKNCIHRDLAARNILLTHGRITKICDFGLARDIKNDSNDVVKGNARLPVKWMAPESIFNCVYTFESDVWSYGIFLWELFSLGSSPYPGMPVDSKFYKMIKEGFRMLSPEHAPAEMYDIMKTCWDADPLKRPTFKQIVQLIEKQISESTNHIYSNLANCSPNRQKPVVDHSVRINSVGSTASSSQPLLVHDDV
# Sequence of STK17B (DRAK2) (O94768 whole entry): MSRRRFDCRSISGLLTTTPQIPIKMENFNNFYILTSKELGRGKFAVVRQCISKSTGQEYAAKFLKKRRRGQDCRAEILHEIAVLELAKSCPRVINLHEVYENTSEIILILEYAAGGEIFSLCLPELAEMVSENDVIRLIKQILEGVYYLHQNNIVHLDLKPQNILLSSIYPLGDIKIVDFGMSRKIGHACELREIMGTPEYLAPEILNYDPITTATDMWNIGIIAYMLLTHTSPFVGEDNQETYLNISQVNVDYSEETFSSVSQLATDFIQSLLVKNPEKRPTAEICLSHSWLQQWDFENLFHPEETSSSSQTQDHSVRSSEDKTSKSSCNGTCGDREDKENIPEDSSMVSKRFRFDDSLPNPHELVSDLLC
# Sequence of MATK (HYL) (P42679 whole entry): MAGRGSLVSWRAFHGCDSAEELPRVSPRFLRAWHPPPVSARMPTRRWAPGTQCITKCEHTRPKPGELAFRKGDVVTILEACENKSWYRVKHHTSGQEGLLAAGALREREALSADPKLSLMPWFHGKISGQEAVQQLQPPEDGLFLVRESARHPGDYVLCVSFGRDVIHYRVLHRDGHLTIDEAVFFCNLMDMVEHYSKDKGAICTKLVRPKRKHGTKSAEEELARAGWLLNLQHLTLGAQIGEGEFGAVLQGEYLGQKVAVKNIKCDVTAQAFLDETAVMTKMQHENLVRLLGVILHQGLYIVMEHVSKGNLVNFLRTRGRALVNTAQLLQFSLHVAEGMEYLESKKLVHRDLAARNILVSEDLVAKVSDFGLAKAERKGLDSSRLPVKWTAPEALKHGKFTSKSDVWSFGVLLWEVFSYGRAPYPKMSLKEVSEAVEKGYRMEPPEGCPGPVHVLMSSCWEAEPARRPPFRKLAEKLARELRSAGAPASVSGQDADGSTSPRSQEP
structure (smiles),measurement,setting,value
O=C(c1ccc(/C=C/c2n[nH]c3ccccc23)cc1)N1CCNCC1 [KW-2449],inhibition at 10 µM,[1],75%
same,inhibition at 10 µM,[2],81%
same,inhibition at 10 µM,[3],-49%
same,inhibition at 10 µM,[4],41%
same,inhibition at 10 µM,[5],75%
same,inhibition at 10 µM,[6],-3%
same,inhibition at 10 µM,[7],74%
same,inhibition at 10 µM,[8],-1%
same,inhibition at 10 µM,[9],73%
same,inhibition at 10 µM,[10],56%
same,inhibition at 10 µM,[11],18%
same,inhibition at 10 µM,[12],82%
same,inhibition at 10 µM,[13],-2%
same,inhibition at 10 µM,[14],100%
same,inhibition at 10 µM,[15],61%
same,inhibition at 10 µM,[16],7%
same,inhibition at 10 µM,[17],37%
same,inhibition at 10 µM,[18],8%
same,inhibition at 10 µM,[19],56%
same,inhibition at 10 µM,[20],98%
same,inhibition at 10 µM,[21],7%
same,inhibition at 10 µM,[22],94%
same,inhibition at 10 µM,[23],53%
same,inhibition at 10 µM,[24],13%
same,inhibition at 10 µM,[25],73%
same,inhibition at 10 µM,[26],88%
same,IC50,[27],2.45 µM
same,inhibition at 10 µM,[28],86%
same,inhibition at 10 µM,[29],16%
same,inhibition at 10 µM,[30],58%
same,inhibition at 10 µM,[31],83%
